Read-outs that look alike come from different tables or passages of the source.
Assays:
human 5-HT3 receptor = human 5-HT3 receptor (Homo sapiens (Human), UniProt P46098); assay: Radioligand binding assay (SPA format), affinity for the human 5-HT3 receptor; settings: for inhibition at 10 µM: read-out: h5-HT3A % inhibition @ 10 μM
Protocol: The relative affinity of the various compounds for the human 5-HT3 receptor was measured in a radioligand binding assay, using a scintillation proximity assay (SPA) format. Test compounds were dissolved to 10 mM in 100% DMSO, then serially diluted at 10× assay concentrations in 100% DMSO in 96-well polypropylene plates and further diluted to 4× assay concentrations with the assay buffer. Samples were incubated in 50 mM Tris-HCl, pH 7.5, 3 mM MgCl2, 1 mM EDTA and 10% DMSO with 10 nM [9-methyl-^3H]BRL-43694 (Perkin Elmer), 3 μg of human 5-HT3 receptor membranes (Perkin Elmer) and 0.5 mg/mL SPA beads (WGA PVT, Amersham Biosciences) in a final volume of 0.2 mL. Binding reactions were set up in wells of PicoPlates-96 (Perkin Elmer) by adding consecutively 50 μL of each competing compound or buffer, SPA beads, the radioligand and 5-HT3 receptor membranes. After an overnight incubation at room temperature on a Nutator mixer, plates were centrifuged for 15 min at 1,500 rpm, followed by incubation in the dark for 30 min. Radioactivity was counted in the TopCount microplate counter (Perkin Elmer) for 5 min. Total binding control contained compound dilution buffer only; nonspecific binding was determined in the presence of 30 μM MDL-72222. Specific binding was determined by subtracting nonspecific binding from total binding. All experiments were performed in duplicate using ten concentrations of competing ligand, with ondansetron included as a control in every run. IC50 values were determined from specific binding data using XLfit4.1 curve fitting software from IDBS Ltd. The inhibition constant (Ki) was calculated from the Cheng Prusoff equation: (Ki=IC50/(1+(L/KD)), where L=concentration of radioligand in the assay, and KD=affinity of the radioligand for the receptor.

h5-HT3A receptor = h5-HT3A receptor (Homo sapiens (Human), UniProt P46098); assay: Agonist activity at recombinant human 5-HT3A receptors, [Ca2+]i in HEK293 cells; format: cell-based; settings: at 1 μM, normalized to the response of 5-HT (5-HT response = 100% at 3 μM); NR = no response
Protocol: Human embryonic kidney (HEK293) cells expressing the h5-HT3A receptor subunit were seeded directly into poly-D-lysine coated, black-walled, clear bottomed, 96 well plates with approximately 1×10^5 cells per well. After 48 hrs incubation in DMEM growth media (100 μL), cells were washed twice (each 200 μL) in Hank's balanced salt solution (Invitrogen) before incubation (1 hr) with Fluo-4 acetoxymethyl (AM) ester (100 μL, 2.5 μM; Molecular Probes). Cells were washed twice (each 200 μL) in Hank's balanced salt solution and incubated for a further 30 min in Hank's balanced salt solution (100 μL) prior to assay (25° C.). Alteration in [Ca^2+]i was measured (relative fluorescence units [RFU]) using a Flexstation (excitation 488 nm and emission 515 nm; frequency of recording 3 sec). After recording for at least 80 sec, vehicle (Hank's balanced salt solution) or drug was automatically administered to the well (50 μL). Baseline was calculated from the 5 data points immediately prior to the first drug administration and the maximum response was that achieved over the 240 sec following drug administration. In all experiments the muscarinic receptor agonist carbachol (1 mM) was added 240 sec after the test drug administration.

[1] = [9-methyl-3H]BRL-43694 10 nM, human 5-HT3 receptor membranes, Cheng Prusoff, read-out: h5-HT3A Ki
[2] = 10 μM compound, radioligand binding

Chain of human 5-HT3 receptor (P46098 24-478): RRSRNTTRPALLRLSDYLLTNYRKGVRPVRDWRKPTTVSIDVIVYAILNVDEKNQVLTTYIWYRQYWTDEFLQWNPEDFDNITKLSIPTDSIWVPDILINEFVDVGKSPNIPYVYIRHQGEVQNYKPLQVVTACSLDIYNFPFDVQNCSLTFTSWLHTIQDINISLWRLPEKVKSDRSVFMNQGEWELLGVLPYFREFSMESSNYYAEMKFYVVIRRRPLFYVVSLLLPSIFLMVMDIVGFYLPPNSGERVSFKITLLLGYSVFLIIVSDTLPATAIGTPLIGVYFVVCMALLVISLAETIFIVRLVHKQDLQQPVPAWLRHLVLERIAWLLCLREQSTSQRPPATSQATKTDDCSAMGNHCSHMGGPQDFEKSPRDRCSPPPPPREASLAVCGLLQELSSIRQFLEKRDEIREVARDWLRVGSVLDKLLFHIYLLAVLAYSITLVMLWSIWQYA
Chain of h5-HT3A receptor (P46098 24-478): as above

Compound | Ki (human 5-HT3 receptor; [1]) | further results
O=C1c2cccc3ccn(c23)CCN1[C@H]1CN2CCC1CC2 [Example 1, (R)-2-(quinuclidin-3-yl)-3,4-dihydro-[1,4]diazepino[6,7,1-hi]indol-1(2H)-one] | 74 nM | –
O=C1c2cccc3ccn(c23)CCN1[C@@H]1CN2CCC1CC2 [Example 2, (S)-2-(quinuclidin-3-yl)-3,4-dihydro-[1,4]diazepino[6,7,1-hi]indol-1(2H)-one] | 4 nM | HEK293 h5-HT3A % agonist response (h5-HT3A receptor): 7%
Cc1cn2c3c(cccc13)C(=O)N([C@@H]1CN3CCC1CC3)CC2 [Example 3, (S)-7-methyl-2-(quinuclidin-3-yl)-3,4-dihydro-[1,4]diazepino[6,7,1-hi]indol-1(2H)-one] | 5 nM | HEK293 h5-HT3A % agonist response (h5-HT3A receptor): 13%
Cc1cn2c3c(cc(Cl)cc13)C(=O)N([C@@H]1CN3CCC1CC3)CC2 [Example 4, (S)-9-chloro-7-methyl-2-(quinuclidin-3-yl)-3,4-dihydro-[1,4]diazepino[6,7,1-hi]indol-1(2H)-one] | 0.2 nM | –
O=C1c2cccc3ccn(c23)CCCN1[C@H]1CN2CCC1CC2 [Example 5, (R)-2-(quinuclidin-3-yl)-2,3,4,5-tetrahydro-1H-[1,5]diazocino[3,2,1-hi]indol-1-one] | 416 nM | –
O=C1c2cccc3ccn(c23)CCCN1[C@@H]1CN2CCC1CC2 [Example 6, (S)-2-(quinuclidin-3-yl)-2,3,4,5-tetrahydro-1H-[1,5]diazocino[3,2,1-hi]indol-1-one] | 205 nM | –
O=C1c2cc(Cl)cc3cnn(c23)CCN1[C@@H]1CN2CCC1CC2 [Example 8, (S)-4-chloro-7-(quinuclidin-3-yl)-8,9-dihydro-[1,4]diazepino[6,7,1-hi]indazol-6(7H)-one] | 0.5 nM | –
O=C1c2cc(F)cc3cnn(c23)CCN1[C@@H]1CN2CCC1CC2 [Example 9, (S)-4-fluoro-7-(quinuclidin-3-yl)-8,9-dihydro-[1,4]diazepino[6,7,1-hi]indazol-6(7H)-one] | 6 nM | –
COc1cc2c3c(cnn3CCN([C@@H]3CN4CCC3CC4)C2=O)c1 [Example 10, (S)-4-methoxy-7-(quinuclidin-3-yl)-8,9-dihydro-[1,4]diazepino[6,7,1-hi]indazol-6(7H)-one] | – | Ki (human 5-HT3 receptor): 14 nM
Cc1cc2c3c(cnn3CCN([C@@H]3CN4CCC3CC4)C2=O)c1 [Example 11, (S)-4-methyl-7-(quinuclidin-3-yl)-8,9-dihydro-[1,4]diazepino[6,7,1-hi]indazol-6(7H)-one] | 0.8 nM | –
O=C1c2cc(O)cc3cnn(c23)CCN1[C@@H]1CN2CCC1CC2 [Example 12, (S)-4-hydroxy-7-(quinuclidin-3-yl)-8,9-dihydro-[1,4]diazepino[6,7,1-hi]indazol-6(7H)-one] | 2 nM | –
O=C1c2cccc3ncn(c23)CCN1[C@@H]1CN2CCC1CC2 [Example 13, 6-((S)-quinuclidin-3-yl)-5,6-dihydroimidazo[4,5,1-jk][1,4]benzodiazepin-7(4H)-one] | 32 nM | –
Cc1nc2cccc3c2n1CCN([C@H]1CN2CCC1CC2)C3=O [Example 14, 2-methyl-6-((R)-quinuclidin-3-yl)-5,6-dihydroimidazo[4,5,1-jk][1,4]benzodiazepin-7(4H)-one] | – | inhibition at 10 µM (human 5-HT3 receptor): 40%
Cc1nc2cccc3c2n1CCN([C@@H]1CN2CCC1CC2)C3=O [Example 15, 2-methyl-6-((S)-quinuclidin-3-yl)-5,6-dihydroimidazo[4,5,1-jk][1,4]benzodiazepin-7(4H)-one] | – | inhibition at 10 µM (human 5-HT3 receptor): 80%
CCc1nc2cccc3c2n1CCN([C@H]1CN2CCC1CC2)C3=O [Example 16, 2-ethyl-6-((R)-quinuclidin-3-yl)-5,6-dihydroimidazo[4,5,1-jk][1,4]benzodiazepin-7(4H)-one] | – | inhibition at 10 µM (human 5-HT3 receptor): 39%
CCc1nc2cccc3c2n1CCN([C@@H]1CN2CCC1CC2)C3=O [Example 17, 2-ethyl-6-((S)-quinuclidin-3-yl)-5,6-dihydroimidazo[4,5,1-jk][1,4]benzodiazepin-7(4H)-one] | 130 nM | –
CC(C)c1nc2cccc3c2n1CCN([C@H]1CN2CCC1CC2)C3=O [Example 18, 2-isopropyl-6-((R)-quinuclidin-3-yl)-5,6-dihydroimidazo[4,5,1-jk][1,4]benzodiazepin-7(4H)-one] | – | inhibition at 10 µM (human 5-HT3 receptor; [2]): 51%
CC(C)c1nc2cccc3c2n1CCN([C@@H]1CN2CCC1CC2)C3=O [Example 19, 2-isopropyl-6-((S)-quinuclidin-3-yl)-5,6-dihydroimidazo[4,5,1-jk][1,4]benzodiazepin-7(4H)-one] | – | inhibition at 10 µM (human 5-HT3 receptor; [2]): 74%
O=C1c2cccc3nc(-c4ccccc4)n(c23)CCN1[C@H]1CN2CCC1CC2 [Example 20, 2-phenyl-6-((R)-quinuclidin-3-yl)-5,6-dihydroimidazo[4,5,1-jk][1,4]benzodiazepin-7(4H)-one] | – | inhibition at 10 µM (human 5-HT3 receptor; [2]): 23%
O=C1c2cccc3nc(-c4ccccc4)n(c23)CCN1[C@@H]1CN2CCC1CC2 [Example 21, 2-phenyl-6-((S)-quinuclidin-3-yl)-5,6-dihydroimidazo[4,5,1-jk][1,4]benzodiazepin-7(4H)-one] | 406 nM | –
O=C1c2cccc3nc(-c4ccc(F)cc4)n(c23)CCN1[C@@H]1CN2CCC1CC2 [Example 22, 2-(4-fluorophenyl)-6-((S)-quinuclidin-3-yl)-5,6-dihydroimidazo[4,5,1-jk][1,4]benzodiazepin-7(4H)-one] | – | inhibition at 10 µM (human 5-HT3 receptor; [2]): 69%
O=C1c2cccc3nc(-c4ccccc4Cl)n(c23)CCN1[C@@H]1CN2CCC1CC2 [Example 23, 2-(2-chlorophenyl)-6-((S)-quinuclidin-3-yl)-5,6-dihydroimidazo[4,5,1-jk][1,4]benzodiazepin-7(4H)-one] | 206 nM | –
O=C1c2cccc3[nH]c(=O)n(c23)CCN1[C@H]1CN2CCC1CC2 [Example 24, 6-((R)-quinuclidin-3-yl)-5,6-dihydroimidazo[4,5,1-jk][1,4]benzodiazepine-2,7(1H, 4H)-dione] | – | inhibition at 10 µM (human 5-HT3 receptor): 75%
O=C1c2cccc3[nH]c(=O)n(c23)CCN1[C@@H]1CN2CCC1CC2 [Example 25, 6-((S)-quinuclidin-3-yl)-5,6-dihydroimidazo[4,5,1-jk][1,4]benzodiazepine-2,7(1H, 4H)-dione] | 7 nM | HEK293 h5-HT3A % agonist response (h5-HT3A receptor): 83%
O=C1c2cccc3c2N(CCN1[C@@H]1CN2CCC1CC2)S(=O)(=O)N3 [Example 26, 6-((S)-quinuclidin-3-yl)-5,6-dihydro-1H-[1,2,5]thiadiazolo[4,3,2-jk][1,4]benzodiazepin-7(4H)-one 2,2-dioxide] | 701 nM | –
COc1ccc(Cn2cc3c4c(cccc42)C(=O)N(CC24CCN(CC2)CC4)CC3)cc1 [Example 27, 6-(4-methoxybenzyl)-2-(quinuclidin-4-ylmethyl)-2,3,4,6-tetrahydro-1H-azepino[5,4,3-cd]indol-1-one] | – | Ki (human 5-HT3 receptor): 8 nM
O=C1c2cccc3[nH]cc(c23)CCN1CC12CCN(CC1)CC2 [Example 28, 2-(quinuclidin-4-ylmethyl)-2,3,4,6-tetrahydro-1H-azepino[5,4,3-cd]indol-1-one] | 30 nM | –
O=C1c2cccc3cnn(c23)CCN1CC12CCN(CC1)CC2 [Example 32, 7-(quinuclidin-4-ylmethyl)-8,9-dihydro-[1,4]diazepino[6,7,1-hi]indazol-6(7H)-one] | 73 nM | –

Reference: patent US9045501B2, “5-HT3 receptor modulators, methods of making, and use thereof” (Albany Molecular Research, Inc., priority 2009, dated 2015)
